According to US20260240820A1, “METHOD FOR CONTROLLING MEMBRANE POTENTIAL-DEPENDENT ION CHANNEL THROUGH TYPE I TASTE RECEPTORS (T1RS)” (ION CHAT RESEARCH CORPORATE, priority 2022, published 2026):
Entries after “also recorded” stand apart in the source; their conditions may differ. Like-named read-outs stand apart in the source and are kept apart here.

What was measured:
T1R2/T1R3 = molecular target: T1, T1R2/T1R3 (Homo sapiens, UniProt Q7RTX0+Q8TE23); details: Mailliet et al. (2009); read-out: IC50 for inhibition of the sucralose response of the sweet receptor (calcium imaging); cited from earlier work
T1 construct: host or cells: HEK cells overexpressing T1R2, T1R3 and G16-gust44 (Mailliet et al. 2009; Masuda et al. 2012)
T1 sequence (Q8TE23 20-839): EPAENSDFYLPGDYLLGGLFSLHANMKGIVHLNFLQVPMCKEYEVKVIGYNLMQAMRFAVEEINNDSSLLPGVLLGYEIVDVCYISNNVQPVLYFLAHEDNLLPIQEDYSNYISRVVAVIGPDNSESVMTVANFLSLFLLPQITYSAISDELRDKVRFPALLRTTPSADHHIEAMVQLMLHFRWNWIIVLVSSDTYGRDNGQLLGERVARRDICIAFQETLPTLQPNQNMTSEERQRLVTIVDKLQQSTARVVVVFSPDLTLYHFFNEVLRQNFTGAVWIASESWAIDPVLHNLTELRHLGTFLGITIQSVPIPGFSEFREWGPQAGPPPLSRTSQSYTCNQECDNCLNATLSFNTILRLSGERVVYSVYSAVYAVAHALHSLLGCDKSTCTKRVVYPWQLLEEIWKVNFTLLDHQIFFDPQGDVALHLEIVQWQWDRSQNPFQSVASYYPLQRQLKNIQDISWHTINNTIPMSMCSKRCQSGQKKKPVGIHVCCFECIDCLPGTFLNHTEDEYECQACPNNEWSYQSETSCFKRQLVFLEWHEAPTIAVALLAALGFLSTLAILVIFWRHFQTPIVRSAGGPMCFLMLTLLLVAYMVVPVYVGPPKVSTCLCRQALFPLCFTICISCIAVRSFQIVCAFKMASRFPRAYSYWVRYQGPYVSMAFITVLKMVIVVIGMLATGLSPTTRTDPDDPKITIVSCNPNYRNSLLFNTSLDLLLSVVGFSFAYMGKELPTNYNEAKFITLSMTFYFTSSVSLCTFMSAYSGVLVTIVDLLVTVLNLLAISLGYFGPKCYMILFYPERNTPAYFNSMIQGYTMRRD
T1 sequence (Q7RTX0 21-852): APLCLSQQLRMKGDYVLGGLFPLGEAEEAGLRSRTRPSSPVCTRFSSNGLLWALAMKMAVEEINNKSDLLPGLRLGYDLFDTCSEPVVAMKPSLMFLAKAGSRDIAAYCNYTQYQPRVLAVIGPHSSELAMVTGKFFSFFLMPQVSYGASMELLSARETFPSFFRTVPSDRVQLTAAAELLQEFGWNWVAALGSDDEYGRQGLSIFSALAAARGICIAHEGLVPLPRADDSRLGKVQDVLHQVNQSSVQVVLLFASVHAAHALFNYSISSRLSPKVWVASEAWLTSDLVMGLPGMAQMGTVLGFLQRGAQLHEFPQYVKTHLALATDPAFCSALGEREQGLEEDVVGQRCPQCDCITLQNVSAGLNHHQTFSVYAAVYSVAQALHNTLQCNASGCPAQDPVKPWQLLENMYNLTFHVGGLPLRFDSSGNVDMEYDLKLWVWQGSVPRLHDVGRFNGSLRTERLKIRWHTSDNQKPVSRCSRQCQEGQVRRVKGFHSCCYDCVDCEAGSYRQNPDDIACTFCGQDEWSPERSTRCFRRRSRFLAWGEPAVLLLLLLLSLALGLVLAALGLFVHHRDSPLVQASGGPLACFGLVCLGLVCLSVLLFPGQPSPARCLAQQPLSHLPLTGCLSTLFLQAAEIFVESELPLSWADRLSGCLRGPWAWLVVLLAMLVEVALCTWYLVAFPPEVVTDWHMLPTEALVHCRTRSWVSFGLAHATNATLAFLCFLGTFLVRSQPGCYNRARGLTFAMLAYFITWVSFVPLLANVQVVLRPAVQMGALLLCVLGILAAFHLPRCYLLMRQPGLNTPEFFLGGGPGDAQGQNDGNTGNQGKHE

Nav1.5 = experiment: Patch-clamp (voltage clamp) recording of VGSC current in HEK cells stably expressing Nav1.5; details: for IC50: read-out: IC50 (VGSC inhibition)
Nav1.6 [1] = experiment: Patch-clamp recording of VGSC current in HEK (Nav1.6) cells; type: cell-based, human
From the text: The cells used in the previous (18-1) experiment were cardiac-type VGSC cells. In this experiment, HEK (Nav1.1) and HEK (Nav1.6) cells, which are considered neuronal VGSC cells, were created. The effects of four peptides—Aβ25-35, Aβ1-38, Aβ1-40, and Aβ1-42—were examined using the same experimental protocol as in (18-1). […]

Nav1.1 = experiment: Patch-clamp recording of VGSC current in HEK (Nav1.1) cells; type: cell-based, human
From the text: The cells used in the previous (18-1) experiment were cardiac-type VGSC cells. In this experiment, HEK (Nav1.1) and HEK (Nav1.6) cells, which are considered neuronal VGSC cells, were created. The effects of four peptides—Aβ25-35, Aβ1-38, Aβ1-40, and Aβ1-42—were examined using the same experimental protocol as in (18-1).

VGSC = experiment: Patch-clamp recording of VGSC current, cell type not specified or several cell types (summary statements); type: cell-based, human
Kv1.2 = experiment: Patch-clamp recording of Kv1.2 potassium current in HEK cells expressing Kv1.2; type: cell-based, human
Method: The effects of Aβ peptides or umami substances on sustained potassium currents (VGKC) in cardiac myocytes can be studied using HEK cells expressing VGKC (such as Kv1.2, Kv3.2, Kv3.3) as well as SH-SY5Y cells expressing endogenous T1R GPCRs. For instance, as shown in the implementation example in (FIG. 36B), Aβ peptides were applied to VGKC-expressing human cultured cells, and VGKC currents were recorded using ramp-like or rectangular voltage waveforms via the patch-clamp technique. This allowed measurement of the changes (inhibition) in VGKC currents caused by Aβ peptides. Similar inhibition studies on VGKC can be conducted using umami substance L-glutamate sodium (MSG) (FIG. 36A).
As shown in (FIG. 37), Aβ1-42 peptide, unlike Aβ25-35 targeting T1R3, interacts with T1R1 and inhibits VGSC currents (FIGS. 37D, E).

[2] = system: Nav1.5 in T1R3-silenced HEK cells; experiment: VGSC current in HEK Nav1.5 cells with silenced T1R3; type: cell-based, human
From the text: The miRNAs Oligo (Thermofisher) used for silencing were annealed to form double-stranded DNA, which was then linked to the miR RNAi Expression Vector using T4 DNA ligase to create the knockdown vector. Specifically, the procedure followed the miR RNAi Expression Vector Kit manual (BLOCK-i™ Pol II miR RNAi Expression Vector Kit with EmGFP (Catalog number: K493600)).
Since Aβ25-35 peptide produced similar effects (enhancing VGSC activity, lowering the excitability threshold) as glutamine, it was considered that Aβ25-35 peptide might also act on T1R2/T1R3 receptors like glutamine. Therefore, in this implementation example, we used HEK-Nav1.5 cells with silenced T1R3 and compared the effect of Aβ25-35 peptide on VGSC with that in control HEK-Nav1.5 cells.
To strengthen these findings, we conducted similar experiments using HEK Nav1.5 cells in which T1R3 expression was silenced (FIG. 22). We measured VGSC currents in T1R3-silenced HEK Nav1.5 cells, applying stimuli every 8 seconds.

Cav1.2 = experiment: Intracellular calcium measurement in HEK cells stably expressing Cav1.2 after KCl depolarisation; type: cell-based, human; details: 12.5 nM
Method: Specifically, experiments were conducted using a method to measure intracellular calcium concentration in HEK cells stably expressing Cav1.2. […] High concentrations of KCl depolarize the cell membrane potential by depolarizing the potassium equilibrium potential from the resting potential, activating voltage-gated calcium channels (VGCC, Cav1.2) that are activated by depolarization, and allowing extracellular calcium to flow into the cell through these calcium channels. (FIG. 47A) measures the activation process of intracellular calcium increase caused by the activation of these VGCCs.
The calcium response to high concentrations of potassium decays with a certain regularity, so the process was approximated using the Hyperbolic Decline formula
and the difference between the curve obtained (dashed line in FIG. 47A) and the experimental values was calculated to derive the enhancement of intracellular calcium by Aβ1-42 peptide.

[3] = system: endogenous T1R GPCR of HEK cells; experiment: Intracellular calcium (Cal-520) in HEK cells stably expressing Nav1.1 with endogenous T1R GPCR; type: cell-based, human; details: 10 nM then 20 nM for Aβ1-40 and Aβ1-42
Method: Specifically, experiments were conducted as follows using HEK cells stably expressing Nav1.1 (FIG. 45). The calcium-sensitive reagent (Cal-520, AAT Bioquest) was incubated at 37° C. for 60 minutes, followed by incubation at room temperature for 30 minutes, and then changes in intracellular calcium were measured using a fluorescence microscope. […] Initially, 10 nM, followed by 20 nM of Aβ1-40 was applied after 5 minutes (arrow). […] A total of 6 cell groups from two independent experiments were measured, averaged by the maximum fluorescence response value, and the mean and standard error (stderr) were calculated and plotted. […] 10 nM, followed by 20 nM of Aβ1-42 was applied after 5 minutes (arrow). […] A total of 12 cell groups from two independent experiments were measured, averaged by the minimum fluorescence response value, and the mean and standard error (stderr) were calculated and plotted. Similar to the experimental results using the patch-clamp method when Aβ peptide was applied to Nav1.5, it was confirmed from intracellular calcium measurements that the effects of Aβ1-40 and Aβ1-42 were different.

HEK Nav1.5 cells = experiment: GFP-Tubulin / GFP-Actin cytoskeleton observation in HEK Nav1.5 cells; type: cell-based, human
From the text: To observe the impact of cinacalcet and Aβ1-42 peptide on microfilament (actin) fiber structures, we labeled cells with GFP-Actin (FIG. 34). […] This experimental approach, using GFP-Tubulin, GFP-Actin, or other fluorescent proteins to label microtubules and microfilaments, can be used to screen compounds that regulate the activity of ion channels and neuronal function-controlling proteins. Additionally, simultaneous labeling of tubulin and actin can be achieved using fluorescent antibodies or phalloidin after cell fixation.

Nav1.6 [4] = experiment: Patch-clamp recording of VGSC current in HEK (Nav1.6) cells; type: cell-based, human; details: HEK cells expressing Nav1.6 and Kv1.2

Molecule	IC50 (T1R2/T1R3) [µM]	IC50 (Nav1.5; prepulse −80 mV) [µM]	IC50 (Nav1.5; prepulse −100 mV) [µM]	IC50 (Nav1.5; prepulse −120 mV) [µM]	Effect on VGSC current (Nav1.6 [1])	Effect on VGSC current (Nav1.1)	Effect on VGSC inactivation (VGSC)	Effects on VGSCs (VGSC)	Effect on voltage gated K+ channel (Kv1.2) current (Kv1.2)	Effect on voltage gated K+ channel (Kv1.2) current (Kv1.2; listed as Aβ42 peptide)	Effect on VGSC in T1R3-silenced cells [2]	Intracellular calcium after KCl-induced Cav1.2 activation (Cav1.2)	Enhancement of intracellular calcium relative to response to high concentrations of potassium (Cav1.2; n=3)	Change in intracellular calcium [3]	Microfilament structure (GFP-Actin) (HEK Nav1.5 cells)	Effect on Nav1.6 VGSC current (Nav1.6 [4])	Effect on VGSC current (Nav1.5; 12.5 nM and 25 nM)	Effect on Nav1.5 VGSC current (Nav1.5; 12.5 nM, perforated patch-clamp with Gramicidin)	Shift of I-V plot peak in the hyperpolarizing direction (Nav1.5; 74 nM)	Effect on VGSC current (Nav1.5; 74 nM, whole-cell voltage clamp, listed as Aβ1-42 peptide)
CCOC(=O)C(C)(C)Oc1ccc(Cl)cc1 [Clofibrate]	28	580	1200	1040																
Aβ1-42: amyloid β peptide, Sequence No. 4					enhancement of VGSC was observed	enhancement of VGSC was observed	delays the inactivation	Delay in VGSC inactivation	reduced Kv1.2 potassium current; also recorded: concentration-dependently inhibits Kv1.2 potassium currents	Inhibition of Voltage gated	is lost	further increase in intracellular calcium	about 11%	biphasic response; also recorded: transiently decreased, slowly recovered, and then began to increase	condensed GFP-Actin structures	amplified; also recorded: enhancing effect	concentration-dependent reductions in VGSC current	enhanced; also recorded: enhancement effect	5-10 mV	decreasing trend; also recorded: suppressed sodium channel currents
